The nature of data set [1]: Body weight, survival, adverse events and organ examination in mice with full-thickness wounds. It is filed as in vivo, BALB/c mice. The note with it: for loss of body weight: 3 and 7 days post-injury (FIG. 1A). As for the experimental part:
Animals: The Institutional Animal Care and Use Committee of the University of Texas Medical Branch in Galveston (UTMB) approved all protocols and studies were conducted in accordance with animal welfare regulations. Healthy 7-week-old male BALB/c mice (N=58) (strain 028, Charles River Laboratories, Houston, Texas, USA) 18-22 g were socially housed in temperature-and light-controlled facilities at UTMB with free access to food and water. Animals were acclimatized for one week before surgical procedures.
(§1) A Balb/C mice excision model was used with a cutaneous full-thickness injury made by a 6-mm diameter punch biopsy. The mice were 7-weeks old and 52 animals were used in the studies discussed herein.
(§2) Animals were administered the RB-containing PF-127-containing hydrogel every other day. A total of three animal treatment groups were studied along with two control groups. one group received vehicle plus light treatment, whereas the other group received vehicle without light. One treatment group of mice received 0.1% RB-containing hydrogel with irradiation for 30 minutes using monochromatic green light (MGL), λ=532 nm at a distance of 2.5 cm that provided […] and a dose of 35J/cm^2. A second treatment group also received 0.1% RB-containing hydrogel, but without MGL irradiation. The third treatment group received 0.01% RB-containing hydrogel without MGL irradiation.
(§3) Primary outcomes assessed safety through analysis of full complete blood count (CBC), comprehensive blood chemistry, body and organ weight. Secondary outcomes analyzed wound closure, epidermal water loss, erythema, and comprehensive wound histology.
(§4) In the primary outcome and measures and observations, the treated animals and a control group received a full CBC and comprehensive blood chemistry panel, as well as observations of body weight food consumption, and organ appearance. Secondarily, wound closure, epidermal water loss erythema and wound histology were examined.
(§5) to determine the effects of rose bengal on blood parameters, blood samples were collected at euthanasia through cardiac puncture and were analyzed for complete blood count using an Abaxis VETSCAN® HM5 Hematology Analyzer Allied Analytic, LLC., Tampa, FL. The blood components analyzed included: white blood cells [WBC], lymphocytes [LYMPH], monocytes [MONO], neutrophils [NEUT], red blood cells [RBC], hemoglobin [HGB], hematocrit [HCT], mean corpuscle volume [MCV], mean corpuscle hemoglobin [MCH], mean corpuscle hemoglobin concentration [MCHC], platelets [PLT], and mean platelet volume [MPV]. Blood chemistry was also analyzed using an Abaxis VETSCAN® VS2 Chemistry Analyzer—Diagnostics to determine liver and Pancreas function through Albumin [ALB], Alkaline phosphatase [ALP], Alanine aminotransferase [ALT], Total bilirubin [tBIL], Total protein [TPRT], Globulin [GLOB], and Amylase [AMY]. Glucose & electrolyte levels were determined by measuring Glucose [GLU], Calcium [CA], Phosphorus [PHOS], Sodium [NA], and Potassium [K]. Kidney Function was assessed through Creatinine [CRE] and Blood urea nitrogen [BUN] levels.

Data set [2] relates to full-thickness cutaneous wounds. The experiment in a line: Transepidermal water loss (TEWL) over the wound, DermaLab Combo. Format: in vivo, BALB/c mice. Conditions: 0.01% RBS, no irradiation; for TEWL relative to usual (pre-injury) range: day 14 post-injury (FIG. 2B); for TEWL compared with vehicle alone: day 14 post-injury, p<0.0001 (FIG. 2B). As to the method:
(§6) Animals were placed under general anesthesia and a 10-mm diameter TEWL probe was placed directly over each wound ensuring uniform coverage and forming a seal immediately around the wound. Following environmental normalization to ambient temperature and relative humidity, TWEL was calculated at […]. A minimum of three TWEL measurements were obtained for each full-thickness wound and uninjured skin area. A color sensitive 7-mm diameter probe, insensitive to ambient light, was then placed over each wound to measure erythema; four measures were obtained for each wound. All wound erythema calculations were normalized to uninjured skin and reported as an index value over time.
as §6, with “At each time point prior to euthanasia, transepidermal water loss (TEWL) and wound erythema indices were measured using the validated DermaLab combo system (CortexTechnologies, Hadsund, Denmark). Animals” for “Animals”, “TEWL” for “TWEL”

For data set [3] the test system is unchanged. The experiment in a line: Tissue ROS generation in full-thickness injury. It is filed as in vivo, Balb/c mice. The note with it: RB phototherapy. From the text:
Following functional and planimetric measurements, animals were euthanized and the dorsal skin, inclusive down to underlying facia and dorsal musculature, was excised; care was employed to not disrupt any open wound post-mortem and maintain tissue integrity. The left-side wound and surrounding uninjured skin was directly transferred into a flat position histology cassette and the right-side wound was immediately snap-frozen in liquid nitrogen for reactive oxygen species and molecular analyses. Histology cassettes were then immersed in 10% neutral buffer formalin for 72 hours and subsequently placed in 70% ethanol thereafter. Uninjured skin tissue for each animal was also collected and preserved for future analyses.
Data are presented as mean±SD with n=3-6 animals per group

Data set [4] in a line: Complete blood count and blood chemistry panel. It is filed as in vivo, BALB/c mice.
Excerpt: as §3, §4, §5

Data set [5] deals with full-thickness cutaneous wounds. Briefly: Wound erythema index, DermaLab Combo. Format: in vivo, BALB/c mice. As to the method: as §6
as §6, with “At each time point prior to euthanasia, transepidermal water loss (TEWL) and wound erythema indices were measured using the validated DermaLab combo system (CortexTechnologies, Hadsund, Denmark). Animals” for “Animals”, “TEWL” for “TWEL”

The conditions of data set [6]: PV-10 as RB source, delivered intratumorally; cited from earlier work.
Data set [7] is described as follows: Tolerated bolus dose on intravasation after intratumoral PV-10. Format: in vivo. Conditions: equivalent of the 1500 mg bolus. As to the method: The wounds were treated with an aqueous pharmaceutical composition prepared using a PV-10®-based rose bengal formulation. PV-10® is a sterile, non-pyrogenic 10% solution of disodium RB in 0.9% saline for injection. Using PV-10®, as its RB source, RB has been tolerated at a bolus dose of 1500 mg upon intravasation when delivered intratumorally; this equates to an exposure of approximately 300 mg/L in the bloodstream (300 μM RB).

In data set [8] the test system is full-thickness cutaneous wounds. The experiment in a line: Wound closure by planimetry of digital images. It is filed as in vivo, BALB/c mice. Conditions: for wound closure compared with vehicle alone: 0.01% RB, no irradiation, day 3 post-injury (FIG. 4). As to the method: as §1, §2
Before surgery, animals received buprenorphine (0.1 mg kg^−1) for pre-procedural analgesia, and inhaled isoflurane (0.2-1.0%) was continuously administered throughout the procedure. The dorsum of the animal was shaved, a depilatory cream was applied to completely remove all dorsal hair, and the area was scrubbed with betadine antiseptic. The animal was laid in the right lateral decubitus position and using forceps, the dorsal skin was stretched, and a 6-mm punch biopsy was used to create bilateral full-thickness cutaneous wounds. Next, a 0.5 mm-thick silicone ring was sutured in place through the panniculus carnosus around each wound to ensure wounds healed primarily through re-epithelialization.
Animals were then randomized into treatment groups as follows: (1) Saline control in the dark, (2) Saline control with MGL irradiation, (3) Hydrogel vehicle in the dark, (4) Hydrogel vehicle with MGL irradiation, (5) RB in the dark, and (6) RB with MGL irradiation. Treatment was applied directly to the wound bed (800 uL per wound) and spread using a sterile surgical spatula to ensure even and uniform thickness over the wound.
Animals were then placed in a separate light-sealed and heated enclosure in a sternal position to expose dorsal wounds and remained under general isoflurane anesthesia. All other exposed portions of the body were then covered with sterile wrap to expose only the wounds. […] Animals were euthanized at 3-, 7-, and 14-days post-injury when wound healing parameters were assessed.
After initial surgery and at each study time point post-injury, color digital images were obtained for each wound. […] Wound planimetry was calculated using ImageJ software (ver. 1.53) by tracing wound edges yielding a surface area in […]. Wound closure was calculated as follows: […]

The conditions of data set [9]: non-medical grade rose bengal, photoactivation with 550 nm MGL; cited from earlier work.
Data set [10] concerns full-thickness cutaneous wounds. The experiment in a line: Number of blood vessels in the wound area (smooth muscle actin staining). Format: in vivo, BALB/c mice. Conditions: 0.01% RBS in vehicle, p<0.05 (FIG. 6); group not clearly stated.
Where [11] appears, read: 0.01% RB every other day without photoactivation.
The mark [12] stands for this setting: 0.1% RB every other day with or without photoactivation.
Setting [13] is: 0.1% RB every other day with or without photoactivation, out to 7 days.
Where [14] appears, read: 0.01% RBS, no irradiation, day 7 post-injury, p<0.0001 (FIG. 3B).
The mark [15] stands for this setting: 0.01% RBS, no irradiation, day 14 post-injury.

These results are taken from patent US20250345275A1, “Micromolar Halogenated Fluorescein Assists in Full Skin-Thickness Wound Healing” (priority 2024, published 2025).

Several values for one entry are separate records, joined by “and”; a condition that tells them apart may be missing. Identical values can stand only once. Entries after “also recorded” stand apart in the source; their conditions may differ.

With `O=C1OC2(c3cc(I)c(O)c(I)c3Oc3c2cc(I)c(O)c3I)c2c(Cl)c(Cl)c(Cl)c(Cl)c21` [RB, 4,5,6,7-tetrachloro-2′, 4′, 5′, 7′-tetraiodo-fluorescein], the adverse events result in [1] (setting [11]) and in [1] (setting [12]) was “no adverse events noted” each time. Moreover, the “survival through time course” value in data set [1] (0.01% RB every other day without photoactivation, n=33) was “All animals survived”; in data set [1] (0.1% RB every other day with or without photoactivation, n=19) it was “All animals survived”. Moreover, in data set [1] (0.01% RB every other day without photoactivation, throughout treatment), the Mean body mass result was “maintained”. Also, the body weight result was “slight weight gains; also recorded: gained weight; also recorded: slight increase” in data set [1] (0.01% RB, no irradiation, day 14 post-injury (between day 7 and 14)); “lost weight” in data set [1] (0.1% RB with and without irradiation, first seven days post-injury); “constant weights; also recorded: maintained their weights” in [1] (vehicle containing 0.01% RB, no irradiation, days 3 and 7 post-injury (FIG. 1B)). In addition, in [1] (setting [13]), the “mean body mass loss” value was about 5%. In addition, the “Body weight and gross examination of internal organs” value in data set [1] (at euthanasia) is listed as “did not show any signs of toxicity”. The “loss in body or organ weight” value in data set [1] (either treatment regimen (single or multidose)) is listed as “No loss”. In addition, the “toxicity / safety for wound healing applications” value in data set [1] (single (photoactivated) and multidose (ambient light, covered) topical application to full-thickness wounds) is “did not illicit toxicity”. Besides, in data set [2], the “TEWL relative to usual (pre-injury) range” value is recorded as “about at the normal level”. Moreover, in data set [2], the “TEWL compared with vehicle alone” value is listed as “significantly reduced”. Further, the “tissue ROS” value in [3] (3 days post-injury, versus all other treatments) was “significantly increased tissue ROS”; in data set [3] (day 14), “abates to nominal levels”; in data set [3] (throughout 7 days, versus all other treatments), “sustained”. Moreover, the other chemistries entry in data set [4] (setting [11]) and in data set [4] (setting [12]) was “within normal ranges” each time. Moreover, the “Erythrocytes and platelets size, morphology, count” value is recorded as “normal” in data set [4] (0.01% RB every other day without photoactivation, out to 14 days) and “normal” in data set [4] (setting [13]). Moreover, the Leukocyte count entry was “normal” in data set [4] (0.01% RB every other day without photoactivation, out to 14 days post-injury/treatment) and “normal” in [4] (0.1% RB every other day with or without photoactivation, out to 7 days post-injury). Besides, the mean amylase result in [4] (0.01% RB every other day without photoactivation, all groups) is on record as “Elevated”; in data set [4] (0.1% RB every other day with or without photoactivation, all treated groups), “Elevated”. Besides, the “erythema index compared with vehicle alone” value in data set [5] (setting [14]) is “significantly increased”. Moreover, in data set [5] (0.1% RB, days 3 and 7 post injury (FIG. 3A)), the “erythema, day 3 versus day 7” value is “about the same”. The “tolerated bolus dose upon intravasation” value in data set [6] is recorded as 1500 mg. Further, in data set [7], the “exposure in the bloodstream” value was “approximately 300 mg/L and 300 μM”. In data set [8], the “wound closure compared with vehicle alone” value was “accelerates wound closure”. The “wound closure compared with saline- or vehicle-treated wounds” value in [8] (RB with or without MGL irradiation, 3 and 7 days after injury) is “significantly closes full-thickness wounds faster”. For the same molecule, in data set [8] (photoactivated RB, 14 days post-injury, p<0.05), the “wound closure compared with every other treatment group” value was “significantly increased wound closure”. Further, the wound closure result in data set [9] is listed as “accelerates wound closure”. Besides, the wound healing entry in data set [9] is “improves wound healing”.
For the molecule `O=C([O-])c1c(Cl)c(Cl)c(Cl)c(Cl)c1-c1c2cc(I)c(=O)c(I)c-2oc2c(I)c([O-])c(I)cc12.[Na+].[Na+]` [RBS, rose bengal disodium], the “number of blood vessels, day 7 versus day 3 post-injury” value in data set [10] is reported as “statistically greater”. Besides, in [1] (0.1% RBS with irradiation (MGL)), the “loss of body weight” value is “approximately 5%”. Further, the “loss of body weight” value in data set [1] (0.1% RBS without irradiation) was “approximately 5%”. Also, in [2], the “TEWL relative to usual (pre-injury) range” value is recorded as “back at their usual range” and the “TEWL compared with vehicle alone” value is listed as “statistically significant difference”. In addition, the “erythema index compared with vehicle alone” value in data set [5] (setting [14]) is “statistically significant difference”. Further, in data set [5] (setting [15]), the “erythema index compared with vehicle alone” value is “not statistically different” and the “erythema index relative to usual values” is listed as “very similar to the usual erythema index values”. Further, in data set [8], the “wound closure compared with vehicle alone” value is reported as “statistically significantly less”.
